Data from patent US20020183335A1, “2, 4-disubstituted pyrimidine-5-carboxamide derivatives as KCNQ potassium channel modulators” (priority 2001, published 2002).
Marks after values point to notes of the source that are not given here.

What was measured:
[1] = target: cloned mouse KCNQ2 (mKCNQ2) (Mus musculus, UniProt Q9Z351); assay: KCNQ oocyte two-electrode voltage clamp, KCNQ2-mediated outward current; assay type: cell-based; details: expressed as percent increase over KCNQ current in controls, Xenopus oocytes
Sequence of cloned mouse KCNQ2 (mKCNQ2) (Q9Z351 whole entry): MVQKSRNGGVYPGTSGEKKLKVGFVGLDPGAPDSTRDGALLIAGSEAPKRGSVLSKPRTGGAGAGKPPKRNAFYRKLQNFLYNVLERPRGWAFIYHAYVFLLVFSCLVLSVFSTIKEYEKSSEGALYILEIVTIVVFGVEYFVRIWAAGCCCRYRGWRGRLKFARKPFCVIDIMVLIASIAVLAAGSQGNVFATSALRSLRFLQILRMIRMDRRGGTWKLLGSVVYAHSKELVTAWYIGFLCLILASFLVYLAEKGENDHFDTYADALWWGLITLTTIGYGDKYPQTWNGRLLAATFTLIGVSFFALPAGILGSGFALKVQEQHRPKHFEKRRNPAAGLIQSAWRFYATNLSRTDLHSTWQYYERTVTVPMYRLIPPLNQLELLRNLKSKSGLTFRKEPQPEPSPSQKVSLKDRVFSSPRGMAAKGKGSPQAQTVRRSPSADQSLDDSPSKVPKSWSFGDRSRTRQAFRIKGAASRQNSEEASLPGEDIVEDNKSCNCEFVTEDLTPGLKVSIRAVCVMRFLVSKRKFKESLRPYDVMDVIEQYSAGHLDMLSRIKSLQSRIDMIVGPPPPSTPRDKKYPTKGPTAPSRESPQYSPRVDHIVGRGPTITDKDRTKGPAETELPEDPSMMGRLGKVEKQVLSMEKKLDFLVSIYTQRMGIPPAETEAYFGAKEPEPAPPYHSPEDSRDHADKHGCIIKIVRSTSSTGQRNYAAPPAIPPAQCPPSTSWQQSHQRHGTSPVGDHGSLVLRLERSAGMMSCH
Experimental: The ability of compounds described in the present invention to open KCNQ channels and increase whole-cell outward (K^+) KCNQ-mediated currents was assessed under voltage-clamp conditions by determining their ability to increase cloned mouse KCNQ2 (mKCNQ2)-mediated, heteromultimeric KCNQ2/3 (KCNQ2/3)-mediated, and human KCNQ5 (hKCNQ5)-mediated outward currents heterologously expressed in Xenopus oocytes. Oocytes were prepared and injected using standard techniques; each oocyte was injected with approximately 50 nl of mKCNQ2, or hKCNQ5 cRNA. In the case of mKCNQ2/3 heteromultimeric channel expression, equal amounts (25-50 nL) of each cRNA were co-injected. […] Following injection, oocytes were maintained at 17° C. in ND96 medium consisting of (in mM): NaCl, 90; KCl, 1.0; CaCl2, 1.0; MgCl2, 1.0; HEPES, 5.0; pH 7.5. Horse serum (5%) and penicillin/streptomycin (5%) were added to the incubation medium. Recording commenced 2-6 days following mRNA injection. Prior to the start of an experiment oocytes were placed in a recording chamber and incubated in Modified Barth's Solution (MBS) consisting of (in mM): NaCl, 88; NaHCO3, 2.4; KCl, 1.0; HEPES, 10; MgSO4, 0.82; Ca(NO3)2, 0.33; CaCl2, 0.41; pH 7.5.
Oocytes were impaled with electrodes (1-2 MΩ) and standard 2-electrode voltage clamp techniques were employed to record whole-cell membrane currents. Recordings were accomplished using standard two-electrode voltage clamp techniques [Stuhmer et al., Methods in Enzymology, Vol. 207: 319-339 (1992)]. Voltage-clamp protocols typically consisted of a series of voltage steps 1-5 sec duration, in +10 mV steps from a holding potential of −90 mV to a maximal potential of +40 mV; records were digitized at 5 kHz and stored on a computer using pclamp data acquisition and analysis software (Axon Instruments). […]

[2] = test system: SSS-stimulated trigeminal field response; assay: In vivo electrophysiology: superior sagittal sinus (SSS)-stimulated trigeminal field response model of migraine; design: species or system rat
Text: Male Long-Evans rats (Harlan, 250-400 g) were used in the experiments described in this example. Prior to testing, rats were allowed access to food and water ad libitum and were maintained on a 12:12-h light/dark cycle. Rats were group housed in an Association for Assessment and Accreditation of Laboratory Animal Care (AAALAC) accredited facility and cared for in strict compliance with all applicable regulations.
Rats were anesthetized with 1.2 g/kg i.p. urethane (#U-2500, Sigma Chemical Company, St. Louis, Mo.) and given supplemental urethane as needed. […]
Stimulated field responses were recorded in the trigeminal nucleus caudalis using Teflon coated stainless-steel microelectrodes (5 megaohms impedance, Frederick Haer, Brunswick, Me.) and amplified and filtered (0.1 Hz-10 kHz) using a differential amplifier (#IsoDAM8, World Precision Instruments, Sarasota, Fla.). […]
Three baseline measures (i.e., 100% of control), each consisting of 100 evoked trigeminal field potentials, were sampled prior to drug injection. […] Following injection of test substances, data were sampled for 1 hour, averaged into 5 minute bins (90 evoked potentials) and expressed as a percent change from average baseline values for the purposes of statistical analysis. Data were analyzed using repeated measures analyses of variance comparing vehicle and drug effects. […]

| KCNQ2 Current ([1]; at 20 μM) | SMILES | further results |
| --- | --- | --- |
| + (+ = 125-150%) | O=C(NCc1ccc(C(F)(F)F)cc1)c1cnc(NCc2ccc(Cl)cc2)nc1N1CCCC1 [Example 39, 2-[(4-Chlorophenyl)methylamino]-4-(pyrrolidin-1-yl)-N-[[4-(trifluoromethyl)phenyl]methyl]-pyrimidine-5-carboxamide] |  |
| ++ (++ = 151-200%) | O=C(NCc1ccc(C(F)(F)F)cc1)c1cnc(NCc2ccccc2)nc1N1CCCC1 [Example 37, 2-(Phenylmethylamino)-4-(pyrrolidin-1-yl)-N-[[4-(trifluoromethyl)phenyl]methyl]pyrimidine-5-carboxamide] |  |

Second part, the compound before the results:

| SMILES | KCNQ2 Current ([1]; at 20 μM) | further results |
| --- | --- | --- |
| O=C(NCc1ccc(C(F)(F)F)cc1)c1cnc(N2CCCC2)nc1C(F)(F)F [Example 19] |  | KCNQ2 Current ([1]; at 5 μM): ++** (++ = 151-200%); decrease in field potential compared with vehicle ([2]; 1 mg/kg i.v., 60 minutes following i.v. injection, rat SSS model of migraine, p=0.005): 25.2%; reduction in the SSS-stimulated trigeminal field response ([2]; i.v., rat, overall ANOVA p<0.001): dose-dependent reduction |
| O=C(NCc1ccc(F)cc1)c1cnc(N2CCCC2)nc1C1CCCCC1 [Example 4, 4-Cyclohexyl-2-(pyrrolidin-1-yl)-N-[(4-fluorophenyl)methyl]pyrimidine-5-carboxamide] | +++ (+++ = >200%) |  |
| O=C(NCc1ccc(F)cc1)c1cnc(N2CCOCC2)nc1C1CCCCC1 [Example 1, 4-Cyclohexyl-2-(morpholin-1-yl)-N-[(4-fluorophenyl)methyl]pyrimidine-5-carboxamide] | +++ (+++ = >200%) |  |
| CCCc1nc(N2CCCC2)ncc1C(=O)NCc1ccc(F)cc1 [Example 9, 4-(1-Propyl)-2-(pyrrolidin-1-yl)-N-[(4-fluorophenyl)methyl]pyrimidine-5-carboxamide] | +++ (+++ = >200%) |  |
